# Read-outs that look alike come from different tables or passages of the source.
# Experiments:
# HT1080 cells = assay: Cellular assay for IDH1m inhibitors: inhibition of 2-HG production (LC-MS, 48 hours) in HT1080 cells; type: cell-based; settings: Homo sapiens
# Procedure, shortened: (§1)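 Read-out: 2-HG in culture medium by LC-MS after 48 h compound exposure; IC50 = 50% reduction vs DMSO control. Cells plated 5000/well in DMEM/10% FBS, 37 °C, 5% CO2; DMSO 0.2% final.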
# IDH1 R132H = IDH1 R132H (Homo sapiens, UniProt O75874, R132H); assay: Assay for IDH1 R132H inhibitors (NADPH/aKG, resazurin detection); type: biochemical; settings: enzyme assay of Example 12; read-out: IDH1R132H IC50
# IDH1 R132H, sequence (O75874 whole entry R132H): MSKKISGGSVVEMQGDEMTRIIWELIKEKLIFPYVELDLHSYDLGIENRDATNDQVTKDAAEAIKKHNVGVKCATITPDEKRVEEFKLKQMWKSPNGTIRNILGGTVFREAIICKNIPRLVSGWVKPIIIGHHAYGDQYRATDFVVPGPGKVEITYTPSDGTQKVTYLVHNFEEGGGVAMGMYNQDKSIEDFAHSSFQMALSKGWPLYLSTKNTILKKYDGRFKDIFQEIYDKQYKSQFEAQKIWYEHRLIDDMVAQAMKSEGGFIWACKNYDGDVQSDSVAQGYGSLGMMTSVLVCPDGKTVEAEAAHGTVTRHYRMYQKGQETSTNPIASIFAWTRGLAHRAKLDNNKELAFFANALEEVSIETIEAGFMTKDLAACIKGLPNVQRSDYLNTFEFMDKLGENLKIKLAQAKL
# Procedure, shortened: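 Read-out is resorufin fluorescence (Ex544/Em590) 5 min after adding a 30 μM resazurin detection mix. Before that, mutant enzyme (0.2 μg/ml in its mix) ran 50 min at room temperature with compound, 8 uM NADPH and 2 mM aKG (mix levels) in Tris pH 7.5 with NaCl, MgCl2, BSA.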
# U87MG cells = assay: Cellular assay for IDH1m inhibitors: inhibition of 2-HG production (LC-MS, 48 hours) in U87MG cells; type: cell-based; settings: Homo sapiens, U-87 MG
# Procedure, shortened: as §1
# [1] = HT-1080, inhibition of 2-HG production, HT1080 cells, read-out: HT1080 IC50
# [2] = inhibition of 2-HG production, U87R132H cells, read-out: U87R132H IC50
Compound,IC50 (HT1080 cells; [1]) [µM],IC50 (IDH1 R132H) [µM],IC50 (U87MG cells; [2]) [µM],"IC50 (HT1080 cells; HT-1080, read-out: HT1080 IC50 (μM)) [µM]",IC50 (U87MG cells; read-out: U87R132H IC50 (μM)) [µM]
"C=Cc1ccc2c(-c3cc(C#N)c(N4CCN(C(=O)CCO)[C@H](C)C4)nc3C3CC3)cccc2n1 [Compound 633, (R)-6-cyclopropyl-2-(4-(3-hydroxypropanoyl)-3-methylpiperazin-1-yl)-5-(2-vinylquinolin-5-yl)nicotinonitrile]",< 0.5,< 0.5,< 0.5,,
"COCCC(=O)N1CCN(c2nc(C3CC3)c(-c3cccc(NC(=O)CCl)c3)cc2C#N)C[C@H]1C [Compound 403, (R)-2-chloro-N-(3-(5-cyano-2-cyclopropyl-6-(4-(3-methoxypropanoyl)-3-methylpiperazin-1-yl)pyridin-3-yl)phenyl)acetamide]",0.5 to 1,< 0.5,0.5 to 1,,
"C=Cc1cc(-c2cc(C#N)c(N3CCN(C(=O)C4CC4)[C@H](C4CC4)C3)nc2C2CC2)c2ccncc2n1 [Compound 689, (R)-2-(4-(cyclopropanecarbonyl)-3-cyclopropylpiperazin-1-yl)-6-cyclopropyl-5-(2-vinyl-1,7-naphthyridin-4-yl)nicotinonitrile]",< 0.5,< 0.5,< 0.5,,
"C=Cc1cnc2c(-c3cc(C#N)c(N4CCN(C(=O)CCOC)[C@H](C5CC5)C4)nc3C3CC3)cccc2n1 [Compound 644, (R)-6-cyclopropyl-2-(3-cyclopropyl-4-(3-methoxypropanoyl)piperazin-1-yl)-5-(2-vinylquinoxalin-5-yl)nicotinonitrile]",< 0.5,< 0.5,< 0.5,,
"COCCC(=O)N1CCN(c2nc(C3CC3)c(-c3cccc(F)c3)c(C)c2C#N)C[C@H]1C [Compound 265, (R)-6-cyclopropyl-5-(3-fluorophenyl)-2-(4-(3-methoxypropanoyl)-3-methylpiperazin-1-yl)-4-methylnicotinonitrile]",1 to 10,< 0.5,1 to 10,,
"COCCC(=O)N1CCN(c2nc(C3CC3)c(-c3cccc(CCO)c3)cc2C#N)C[C@H]1C [Compound 297, (R)-6-cyclopropyl-5-(3-(2-hydroxyethyl)phenyl)-2-(4-(3-methoxypropanoyl)-3-methylpiperazin-1-yl)nicotinonitrile]",0.5 to 1,< 0.5,1 to 10,,
"C=Cc1cc(-c2cc(C#N)c(N3CCN(C(=O)CO)[C@H](C4CC4)C3)nc2C2CC2)ccn1 [Compound 738, (R)-2-cyclopropyl-6-(3-cyclopropyl-4-(2-hydroxyacetyl)piperazin-1-yl)-2′-vinyl-3,4′-bipyridine-5-carbonitrile]",< 0.5,< 0.5,< 0.5,,
"C=Cc1cc(-c2c(C3CC3)nc(N3CCN(C(=O)CC4CCCO4)[C@H](C4CC4)C3)c(C#N)c2C)ccn1 (stereo partly drawn) [Compound 805, 2-cyclopropyl-6-((3R)-3-cyclopropyl-4-(2-(tetrahydrofuran-2-yl)acetyl)piperazin-1-yl)-4-methyl-2′-vinyl-[3,4′-bipyridine]-5-carbonitrile]",< 0.5,< 0.5,< 0.5,,
"COCCC(=O)N1CCN(c2nc(C3CC3)c(-c3cccc(-c4cc[nH]n4)c3)cc2C#N)C[C@H]1C [Compound 363, (R)-6-cyclopropyl-2-[4-(3-methoxy-propionyl)-3-methyl-piperazin-1-yl]-5-[3-(1H-pyrazol-3-yl)-phenyl]-nicotinonitrile]",1 to 10,< 0.5,0.5 to 1,,
"C=Cc1cc(-c2cc(C#N)c(N3CCN(C(=O)C4CC4)[C@H](C4CC4)C3)nc2C2CC2)ccn1 [Compound 485, (R)-6-(4-(cyclopropanecarbonyl)-3-cyclopropylpiperazin-1-yl)-2-cyclopropyl-2′-vinyl-3,4′-bipyridine-5-carbonitrile]",< 0.5,< 0.5,< 0.5,,
"C=Cc1ccc2c(-c3cc(C#N)c(N4CCN(C(=O)CCOC)[C@H](C)C4)nc3C3CC3)cccc2n1 [Compound 608, (R)-6-cyclopropyl-2-(4-(3-methoxypropanoyl)-3-methylpiperazin-1-yl)-5-(2-vinylquinolin-5-yl)nicotinonitrile]",< 0.5,< 0.5,< 0.5,,
"CCS(=O)(=O)N1CCN(c2cc(C#N)c(N3CCN(C(=O)CCOC)[C@H](C)C3)nc2C2CC2)CC1 [Compound 377, (R)-6-cyclopropyl-5-(4-(ethylsulfonyl)piperazin-1-yl)-2-(4-(3-methoxypropanoyl)-3-methylpiperazin-1-yl)nicotinonitrile]",0.5 to 1,< 0.5,< 0.5,,
"COCCC(=O)N1CCN(c2nc(C3CC3)c(-c3cccc4nc(O)ccc34)cc2C#N)C[C@H]1C [Compound 442, (R)-6-cyclopropyl-5-(2-hydroxyquinolin-5-yl)-2-(4-(3-methoxypropanoyl)-3-methylpiperazin-1-yl)nicotinonitrile]",< 0.5,< 0.5,< 0.5,,
"COCCC(=O)N1CCN(c2nc(C3CC3)c(OC(c3ccccc3)C(C)C)cc2C#N)C[C@H]1C (stereo partly drawn) [Compound 302, 6-cyclopropyl-2-((R)-4-(3-methoxypropanoyl)-3-methylpiperazin-1-yl)-5-(2-methyl-1-phenylpropoxy)nicotinonitrile]",1 to 10,< 0.5,1 to 10,,
"C=Cc1cc(-c2cc(C#N)c(N3CCN(C(=O)CCOP(=O)(O)O)[C@H](C4CC4)C3)nc2C2CC2)ccn1 [Compound 810, Sodium (R)-3-(4-(5-cyano-2-cyclopropyl-2′-vinyl-[3,4′-bipyridin]-6-yl)-2-cyclopropylpiperazin-1-yl)-3-oxopropyl phosphate]",,0.5 to 1,,< 0.5,< 0.5
"COCCC(=O)N1CCN(c2nc(C3CC3)c(-c3ccc4[nH]cnc4c3)cc2C#N)C[C@H]1C [Compound 361, (R)-5-(1H-benzoimidazol-5-yl)-6-cyclopropyl-2-[4-(3-methoxy-propionyl)-3-methyl-piperazin-1-yl]-nicotinonitrile]",1 to 10,< 0.5,0.5 to 1,,
"C=Cc1cc(-c2cc(C#N)c(N3CCN(C(=O)CC4CCCO4)[C@H](C4CC4)C3)nc2C2CC2)ccn1 (stereo partly drawn) [Compound 801, 2-cyclopropyl-6-((3R)-3-cyclopropyl-4-(2-(tetrahydrofuran-2-yl)acetyl)piperazin-1-yl)-2′-vinyl-[3,4′-bipyridine]-5-carbonitrile]",< 0.5,< 0.5,< 0.5,,
"C=Cc1cc(-c2cc(C#N)c(N3CCN(C(=O)C[C@H](C)O)[C@H](C4CC4)C3)nc2C2CC2)ccn1 [Compound 595, 2-cyclopropyl-6-((R)-3-cyclopropyl-4-((S)-3-hydroxybutanoyl)piperazin-1-yl)-2′-vinyl-3,4′-bipyridine-5-carbonitrile]",< 0.5,< 0.5,< 0.5,,
"C=Cc1cc(-c2c(C3CC3)nc(N3CCN(C(=O)C[C@@H]4CCO4)[C@H](C4CC4)C3)c(C#N)c2C)ccn1 [Compound 761, 2-cyclopropyl-6-((R)-3-cyclopropyl-4-(2-((S)-oxetan-2-yl)acetyl)piperazin-1-yl)-4-methyl-2′-vinyl-3,4′-bipyridine-5-carbonitrile]",< 0.5,< 0.5,< 0.5,,
"C=Cc1cc(-c2cc(C#N)c(N3CCN(C(=O)C[C@H]4CCO4)[C@H](C)C3)nc2C2CC2)ccn1 [Compound 648, 2-cyclopropyl-6-((R)-3-methyl-4-(2-((R)-oxetan-2-yl)acetyl)piperazin-1-yl)-2′-vinyl-[3,4′-bipyridine]-5-carbonitrile]",< 0.5,< 0.5,< 0.5,,
"COCC(=O)N1CCN(c2nc(C3CC3)c(Nc3ccnc(Cl)c3)cc2C#N)C[C@H]1C1CC1 [Compound 718, (R)-5-((2-chloropyridin-4-yl)amino)-6-cyclopropyl-2-(3-cyclopropyl-4-(2-methoxyacetyl)piperazin-1-yl)nicotinonitrile]",0.5 to 1,< 0.5,< 0.5,,
"C=Cc1cc(-c2cc(C#N)c(N3CCN(C(=O)CCOC)[C@H](C4CC4)C3)nc2C2CC2)c2cccnc2n1 [Compound 645, (R)-6-cyclopropyl-2-(3-cyclopropyl-4-(3-methoxypropanoyl)piperazin-1-yl)-5-(2-vinyl-1,8-naphthyridin-4-yl)nicotinonitrile]",< 0.5,< 0.5,< 0.5,,
"COCCC(=O)N1CCN(c2nc(C3CC3)c(O[C@H](C)c3ccccc3)cc2C#N)C[C@H]1C [Compound 307, 6-cyclopropyl-2-((R)-4-(3-methoxypropanoyl)-3-methylpiperazin-1-yl)-5-((R)-1-phenylethoxy)nicotinonitrile]",1 to 10,< 0.5,1 to 10,,
"C=Cc1cc(-c2cc(C#N)c(N3CCN(C(=O)CCOC)[C@H](C(C)C)C3)nc2C2CC2)c2cccnc2n1 [Compound 626, (R)-6-cyclopropyl-2-(3-isopropyl-4-(3-methoxypropanoyl)piperazin-1-yl)-5-(2-vinyl-1,8-naphthyridin-4-yl)nicotinonitrile]",< 0.5,< 0.5,< 0.5,,
"C=Cc1cc(Nc2cc(C#N)c(N3CCN(C(=O)CCOC)[C@H](C)C3)nc2C2CC2)c2cccnc2n1 [Compound 705, (R)-6-cyclopropyl-2-(4-(3-methoxypropanoyl)-3-methylpiperazin-1-yl)-5-(2-vinyl-1,8-naphthyridin-4-ylamino)nicotinonitrile]",< 0.5,< 0.5,< 0.5,,
